Experimental data reported in ChEMBL document CHEMBL2028040, “Malaria Box”.

What was measured:
Leishmania infantum = assay: MMV: Inhibition of Leishmania infantum (MHOM/MA/BE/67) in vitro.; type: functional, organism-based
[1] = tested on: Trypanosoma brucei rhodesiense; assay: MMV: Inhibition of Trypanosoma brucei rhodesiense (STIB 900) (HAT in vitro).; type: functional, organism-based
[2] = tested on: Trypanosoma brucei brucei; assay: MMV: Inhibition of Trypanosoma brucei brucei (Squib 427) (HAT in vitro).; type: functional, organism-based
[3] = MMV: Cytotoxicity against human fibroblasts (MRC-5) cells.; conditions: MRC-5 cells (human fibroblasts)
Plasmodium falciparum = assay: MMV: Inhibition of Plasmodium falciparum 3D7 at 5uM compound concentration.; type: functional
Trypanosoma cruzi = assay: MMV: Inhibition of Trypanosoma cruzi (Tulahuen C4 LacZ) (Chagas in vitro).; type: functional, organism-based

| Compound | IC50 (Leishmania infantum) [µM] | IC50 [1] [µM] | IC50 [2] [µM] | IC50 [3] [µM] | inhibition at 5 µM (Plasmodium falciparum) [%] | IC50 (Trypanosoma cruzi) [µM] |
| --- | --- | --- | --- | --- | --- | --- |
| O=C(Nc1ccccc1O)c1ccc(Oc2cccc(C(=O)Nc3ccccc3O)c2)cc1 | > 32 | > 32 | > 32 | > 32 | 91 | > 32 |
| O=C(Nc1ccc(Br)cc1)Nc1cccc(Cl)c1 | 10.2 | 3.09 | 4 | > 32 | 94 | 5.21 |
| COc1ccc(C(=O)Nc2ccc3nc(N4CCCCC4)cc(C)c3c2)cc1OC | 16.2 | 10.9 | 16.2 | 16.4 |  | 14.6 |
| COc1cc2cc(C(=O)Nc3ccccc3)c(N)nc2cc1OC | > 32 | > 32 | > 32 | > 32 |  | > 32 |
| CC(=O)c1ccc(NC(=O)CSc2nc(-c3ccccc3Cl)ns2)cc1 | > 32 | > 32 | > 32 | > 32 |  | > 32 |
| CCC(=O)Nc1nnc(Cc2ccc(OC)c(OC)c2)s1 | > 32 | > 32 | > 32 | > 32 | 47 | > 32 |
| FC(F)(F)c1cccc(Nc2nc(-c3ccccc3)nc3ncccc23)c1 | > 32 | 25.3 | > 32 | > 32 | 74 | 15.3 |
| CCN1CCN(c2cc(C)c3cc(NC(=O)c4ccc(OC)c(OC)c4)ccc3n2)CC1 | 6.35 | 3.22 | 4.78 | 5.46 |  | 6.59 |
| COc1ccc(-c2cn3c(C(=O)Nc4ccccc4Cl)c(-c4ccccc4)c4c3n2CCCC4)cc1 | 16 | 5 | 16.5 | > 32 | 80 | 15 |
| Cn1c(C(=O)c2cccc3ccccc23)nc2ccccc21 | 16 | 29.2 | > 32 | > 32 | 89 | > 32 |
| Oc1ccc2ccccc2c1CNc1nc2ccccc2[nH]1 | > 32 | 8.65 | 16.1 | > 32 | 83 | > 32 |
| Oc1ccc(Cl)cc1CNc1nc2ccccc2[nH]1 | 16 | 16 | 15.6 | 15.9 | 95 | 16.1 |
| COc1cccc(C(=O)Nc2ccc(-c3nc4ccccc4[nH]3)cc2)c1 | 16.2 | > 32 | > 32 | > 32 | 83 | > 32 |
| COc1ccc(C(=O)Nc2ccc(Cl)cc2C(=O)Nc2ccncc2)cc1 | > 32 | > 32 | > 32 | > 32 | 93 | > 32 |
| O=C(Nc1ccc(-c2nc3cc(NC(=O)c4ccc(Cl)cc4)ccc3[nH]2)cc1)c1ccc(Cl)cc1 | > 32 | > 32 | > 32 | > 32 |  | > 32 |
| CCOc1cccc(C(=O)Nc2ccc(-c3nc4ccccc4[nH]3)cc2)c1 | 16.2 | > 32 | > 32 | > 32 |  | > 32 |
| CCOC(=O)c1cnc2ccc(OC)cc2c1Nc1ccc(N2CCN(C)CC2)cc1 | > 32 | 3.82 | 32 | 13.9 |  | 4.13 |
| COc1ccc(C(=O)C(CCC(CNC(C)(C)C)C(=O)c2ccc(OC)cc2)CNC(C)(C)C)cc1 (stereo not given) | 0.846 | 1.65 | 1.02 | 10.3 | 85 | 4.15 |
| Cc1c(C)n(Cc2ccc(F)cc2)c2ccc(C(=O)NCc3ccco3)cc12 | > 32 | 15.4 | 11 | > 32 | 52 | > 32 |
| CCN(CC)c1ccc(NC(=O)c2cccs2)cc1 | > 32 | > 32 | > 32 | > 32 | 88 | > 32 |
| CCOc1ccccc1NC(=O)CN1CCN(C(=O)c2ccco2)CC1 | > 32 | > 32 | > 32 | > 32 | 83 | > 32 |
| CCN(CC)CCCNc1ccnc2cc3ccccc3cc12 | > 32 | 16.2 | 16.5 | > 32 | 90 | > 32 |
| COc1ccc(-c2nonc2NC(=O)c2cccc(Cl)c2)cc1OC | > 32 | > 32 | > 32 | > 32 |  | > 32 |
